Reference: patent US12534451B2, “Small molecule modulators of PanK” (St. Jude Children's Research Hospital, priority 2019, dated 2026)

Columns and labels:
[1] = tested on: Human C3A [HepG2/C3A] cells; assay: Cellular total CoA determination in C3A cells; format: cell-based; conditions: 24 hrs of treatment
Procedure: Human C3A [HepG2/C3A, derivative of HepG2] cells (ATCC #CRL-10741) were purchased from ATCC® and maintained in Eagle's minimum Essential medium (ATCC) supplemented with 2 mM glutamine, 10% fetal bovine serum (FCS, Altanta Biologicals), 50 U/ml penicillin and […] streptomycin. The C3A cell line was confirmed to be mycoplasma-free. Test compounds or vehicle control (DMSO) was added and after 24 hrs of treatment the cells were washed with PBS and harvested and subjected to total CoA determination.
Cultured cells were resuspended in 2 ml cold water to which 500 μl of 0.25M KOH was added, derivatized with monobromobimane (mBBr, Life technologies) and quantified by HPLC. 30 mg of frozen tissue is homogenized in 2 ml of 1 mM KOH and then derivatized with mBBr. The mBBr derivatized samples were fractionated by reverse-phase HPLC using a Gemini C18 3 μm column (150×4.60 mm) from Phenomenex. The chromatography system was a Waters e2695 separation module with a UV/Vis and fluorescence detector and controlled by Empower 3 software. Solvent A was 50 mM potassium phosphate pH 4.6, and solvent B was 100% acetonitrile. Twenty microliters of sample was injected onto the column, and the flow rate was 0.5 ml/min. The HPLC program was the following: starting solvent mixture of 90% A/10% B, 0-2 min isocratic with 10% B, 2-6 min linear gradient from 10% B to 15% B, 6-18 min concave gradient from 15% B to 40% B, 18-23 min isocratic with 40% B, 23-25 min linear gradient from 40 to 10%, and 25-30 min isocratic with 10% B. The UV/vis detector was set at 393 nm, and the fluorescence detector was set with excitation at 393 nm and emission at 470 nm. The elution position of the mBBr-CoA, was determined by comparison with mBBr-CoA prepared from commercial CoA (Avanti Polar Lipids). The areas under the mBBr-derivatized CoA was integrated and compared to known concentrations of the mBBr-CoA standard.

human PANK3 = human PANK3 (Homo sapiens (Human), UniProt Q9H999); assay: PANK activity assay (radiochemical, D-[1-14C]pantothenate); format: biochemical; conditions: 5 nM human PANK3, 2.5 mM ATP, 45 μM pantothenate, 10 min at 37° C.; average ± data range
human PANK3, sequence (Q9H999 whole entry): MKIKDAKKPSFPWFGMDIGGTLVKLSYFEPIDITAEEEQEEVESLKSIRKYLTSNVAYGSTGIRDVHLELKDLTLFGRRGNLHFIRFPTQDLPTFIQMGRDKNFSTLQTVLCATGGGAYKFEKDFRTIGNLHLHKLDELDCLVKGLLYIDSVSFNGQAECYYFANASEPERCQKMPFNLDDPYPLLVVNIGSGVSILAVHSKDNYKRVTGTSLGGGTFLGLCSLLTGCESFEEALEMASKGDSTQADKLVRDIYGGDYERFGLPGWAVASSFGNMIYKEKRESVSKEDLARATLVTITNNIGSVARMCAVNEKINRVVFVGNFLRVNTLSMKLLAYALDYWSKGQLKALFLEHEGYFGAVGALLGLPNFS
Procedure: The PanK activity and Surface Plasmon Resonance assays were conducted as explained in the literature.
If the IC^50 was determined to be in the nM range then the assay was repeated in the presence of 0-1 μM or 0-0.1 μM compound to more precisely determine the IC^50. All the experiments were repeated twice in duplicate and the data were an average ±data range.
The experiments mimicking the mixture of ligands present in vivo were performed under different conditions. […] The IC^50 values for the structure-activity study were calculated by fitting the inhibition data to a one-site model of the Michaelis-Menten equation. […] Thus, the data were fit to Morrison's quadratic equation (GraphPad software) that accounts for the impact of enzyme inhibitor binding on the free concentration of inhibitor.

| Structure (SMILES) | IC50 (human PANK3) [nM] | C3A CoA% elevation [1] [%] |
| --- | --- | --- |
| O=C(Cc1ccc(C2CC2)cc1)N1CCN(c2nc3c(F)cc(F)cc3s2)CC1 [PZ-4291] | 2.1 ± 0.1 | 238.4 |
| CS(=O)(=O)Nc1ccc(CC(=O)N2CCN(c3nc4ccccc4s3)CC2)cc1 [PZ-4294] | 13 ± 1.3 | 102.23 |
| O=C(Cc1ccc(C2CC2)cc1)N1CCN(c2nc3ncccc3s2)CC1 [PZ-4298] | 1 ± 0.1 | 60.1 |
| O=C(Cc1ccc(C2CC2)cc1)N1CCN(c2nc3c(F)cccc3s2)CC1 [PZ-4299] | 7.2 ± 1.3 | 228.4 |
| O=C(Cc1ccc(C2CC2)cc1)N1CCN(c2nc3ccc(F)cc3s2)CC1 [PZ-4300] | 3.9 ± 0.3 | 242.5 |
| O=C(Cc1ccc(C2CC2)cc1)N1CCN(c2nc3cccnc3o2)CC1 [PZ-4301] | 52.9 ± 6.4 | 268.3 |
| O=C(Cc1ccc(C2CC2)cc1)N1CCN(c2nc3ccc(F)cc3o2)CC1 [PZ-4304] | 14.3 ± 0.6 | 167 |
| O=C(Cc1ccc(C2CC2)cc1)N1CCN(c2nc3cc(F)ccc3s2)CC1 [PZ-4306] | 5.4 ± 0.4 | 238.6 |
| O=C(Cc1ccc(C2CC2)cc1)N1CCN(c2nc3ncccc3o2)CC1 [PZ-4314] | 2.9 ± 0.1 | 275 |

Continued, in another order:

| IC50 (human PANK3) [nM] | Structure (SMILES) | C3A CoA% elevation [1] [%] |
| --- | --- | --- |
| 5 ± 0.5 | CN(C)c1ccc(CC(=O)N2CCN(c3nc4ncccc4s3)CC2)cc1 [PZ-4316] | 183.4 |
| 1.4 ± 0.16 | CS(=O)(=O)Nc1ccc(CC(=O)N2CCN(c3nc4ncccc4s3)CC2)cc1 [PZ-4320] | 58 |
| 4.1 ± 0.49 | CS(=O)(=O)Nc1ccc(CC(=O)N2CCN(c3nc4c(F)cccc4s3)CC2)cc1 [PZ-4322] | 171.6 |
| 1.3 ± 0.06 | CS(=O)(=O)Nc1ccc(CC(=O)N2CCN(c3nc4c(F)cc(F)cc4s3)CC2)cc1 [PZ-4324] | 104.3 |
